Data: patent US10821110B2, “Composite preparation, containing novel 3-(4--(benzyloxy)phenyl)hex-4-inoic acid derivative and another active ingredient, for preventing or treating metabolic diseases” (HYUNDAI PHARM CO., LTD., priority 2014, dated 2020)
Like-named read-outs stand apart in the source and are kept apart here. Blank lines part the entries; values can stand above or below the compound they belong to.

Legend:
[1] = system: Male Sprague Dawley (SD) rats; experiment: OGTT by co-administration with SGLT2 inhibitor-based drug (empagliflozin); type: in vivo, rat
Description: The experimental results were expressed as mean and standard error (Mean±SE), and the differences between the control and the experimental groups were tested by one-way ANOVA (a Dunnett method) of “GraphPad Prism 4” software (Graphpad co., La Jolla, Calif., USA). Here, p<0.05 was considered statistically significant.

[2] = system: Male Sprague Dawley (SD) rats; experiment: OGTT by co-administration with biguanide-based drug (metformin), SD rat model; type: in vivo
Male Sprague Dawley rats = experiment: Oral glucose tolerance test (OGTT) 1; type: in vivo; details: Rattus norvegicus, 2 h; SD rats; 10 mg/kg oral; glucose 4 g/kg 30 minutes after; read-out: % AUC (reduction (%) of blood glucose AUC)
Description: Male Sprague Dawley rats aged 8-10 weeks old were acclimated for at least 7 days, and then only healthy animals were used for the oral glucose tolerance test (OGTT test). After fasting for 16-18 hours, five rats per group were randomly grouped and orally administered with the compounds prepared in Examples 2, 3, 4, 6, 9, 12, 14, 16, 25, 29, 36, 37, 41, 43, and 44 at a dose of 10 mg/kg each. Here, as for a non-treated group (vehicle), a solution (PEG 400/Tween 80/0.25% CMC, 5%/5%/90%, v/v/v) containing 5% polyethyleneglycol/5% tween 80/0.25% carboxymethylcelluluse (CMC) was orally administered at the same dose. Glucose (4 g/kg) was orally administered at a dose of 5 ml/kg 30 minutes after each sample was administered. Then, the blood glucose was measured by using Accu-chek active strip (Roche diagnostic Co.).

[3] = system: male Zucker diabetic fatty (ZDF) rats; experiment: OGTT by co-administration with biguanide-based drug (metformin), type II diabetic rat model; type: in vivo
[4] = system: male diet-induced obesity (DIO) mice; experiment: OGTT by co-administration with sulfonylurea-based drug (glimepiride); type: in vivo, mouse; details: oral
Description: Here, as for a non-treated group, 5% carboxymethyl cellulose (CMC) was orally administered at the same dose. In addition, 10 mg/kg of glimepiride, which is well known as a sulfonylurea-based drug, was administered alone. […] The saline and test materials were orally administered at 5 ml/kg.

[5] = system: INS-1 cells (rat insulinoma cell line); experiment: Insulin secretion experiment; type: cell-based; details: 25 mM glucose
Description: INS-1 cells (rat insulinoma cell line) were seeded in a 24-well plate at 5×10^5 cells/well, and cultured for 48 hours. […] The amount of insulin secreted in the insulin ELISA kit (Morinaga) was measured using the supernatant of the cells after the experiment was ended (see Table 16 and FIG. 11).

[6] = system: Male Sprague Dawley (SD) rats; experiment: OGTT by co-administration with DPPIV inhibitor (linagliptin), SD rat model; type: in vivo; details: Example 9 3 mg/kg alone
Description: The blood glucose was measured by using Accu-chek active strip (Roche diagnostic Co.).

[7] = system: Male Sprague Dawley (SD) rats; experiment: Blood GLP-1 concentration increase after oral administration; type: in vivo, rat; details: Example 9 at 10-100 mg/kg, plasma after 20 minutes, FIG. 2
Description: After 20 minutes, about 0.5 ml of whole blood was collected by direct blood collection through cardiac injection, and the collected blood was immediately transferred to a sample tube treated with the dipeptidyl peptidase IV (DPPIV) inhibitor and ethylenediaminetetraacetic acid (EDTA), and placed in a container containing ice. The collected blood was centrifuged at 3600 rpm for 10 minutes to separate the plasma, and the separated plasma was measured for the plasma GLP-1 concentration through the GLP-1 ELISA kit (Millipore, USA).

[8] = system: male diet-induced obesity (DIO) mice; experiment: OGTT by co-administration with DPPIV inhibitor (sitagliptin), mouse model; type: in vivo; details: oral
Description: Here, as for a non-treated group, 5% carboxymethyl cellulose (CMC) was orally administered at the same dose. […] Each test sample and 0.5% carboxymethyl cellulase (CMC) were orally administered at 5 ml/kg.

[9] = system: male diet-induced obesity (DIO) mice; experiment: OGTT by co-administration with thiazolidinedione (TZD)-based drug; details: oral
Description: Here, as for a non-treated group, 5% carboxymethyl cellulose (CMC) was orally administered at the same dose. In addition, 10 mg/kg of rosiglitazone and pioglitazone, which are well known as thiazolidinedione (TZD)-based drugs, were administered alone. […] The saline and test materials were orally administered at 5 ml/kg.
After 60 minutes, glucose (4 g/kg) was orally administered at a dose of 5 ml/kg. The blood glucose was measured by using Accu-chek active strip (Roche diagnostic Co.).

human GPR40 = biological target: T1, human GPR40 (Homo sapiens, UniProt O14842); experiment: Activation of GPR40 protein: intracellular calcium change (Fluo-4, Flexstation 3) in transfected HEK-293 cells; type: cell-based; details: HEK-293 cells transfected with human GPR40
T1 construct: host or cells: HEK-293
Description: The activation of GPR40 protein by a novel 3-(4-(benzyloxy)phenyl)hex-4-ynoic acid derivative of the present invention was evaluated through the change in intracellular calcium concentration due to the activity of GPR40 protein. First, HEK-293 cells were transfected with human GPR40 DNA (Origene, RC218370) by using Fugene HD (Promega, E2311). […] After 24 hours, the cell culture medium was removed, and replaced with Dulbecco's Modified Eagle Medium (DMEM, 50 μl) supplemented with 1% fetal bovine serum (FBS). For the measurement of calcium concentration, 50 μL of Fluo-4 reagent (Invitrogen, F10471) was added to each well and cultured in a 37° C. incubator for 2 hours. […] Two hours after the initiation of the culture, the prepared samples were automatically injected into the cells using Flexstation 3 (Molecular Devices), and then, the change in intracellular calcium concentration was measured using SoftMax®Pro software for 120 seconds. Here, for a non-treated group, dimethylsulfoxide (DMSO) was injected into the cells to measure the change in calcium concentration. The GPR40 protein activity was calculated from the measured calcium concentration result values using equation 1 below, and the GPR40 activity (EC50 value) by the samples was obtained. […] GPR 40 activity=(intracellular calcium concentration increased by the sample)/(intracellular calcium concentration of the non-treated group)×100 [Equation 1]

[10] = intracellular calcium, read-out: EC50

T1 sequence (O14842 whole entry): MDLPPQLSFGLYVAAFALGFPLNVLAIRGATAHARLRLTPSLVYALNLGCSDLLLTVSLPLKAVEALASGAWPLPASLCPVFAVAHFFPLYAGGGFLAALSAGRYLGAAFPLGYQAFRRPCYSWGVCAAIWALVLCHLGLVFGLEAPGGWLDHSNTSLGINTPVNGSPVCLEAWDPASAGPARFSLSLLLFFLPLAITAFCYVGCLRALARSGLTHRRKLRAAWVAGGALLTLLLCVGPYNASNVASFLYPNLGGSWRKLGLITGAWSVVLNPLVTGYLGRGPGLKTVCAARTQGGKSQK

- EC50 (human GPR40; [10]): > 0.3 µM
SMILES: CC#CC(CC(=O)O)c1ccc(OCc2ccc(CN3CCc4cc(OC)ccc4C3)cc2)cc1 (stereo not drawn) [Example 16, 3-(4-(4-((6-methoxy-3,4-dihydroisoquinolin-2(1H)-yl)methyl)benzyloxy)phenyl)hex-4-ynoic acid]
- inhibition in vivo at 10 mg/kg (Male Sprague Dawley rats): 21.1%

- EC50 (human GPR40; [10]): > 0.3 µM
SMILES: CC#C[C@@H](CC(=O)O)c1ccc(OCc2ccc(CN3CCc4cc(OC)ccc4C3)cc2)cc1 [Example 25, (S)-3-(4-(4-((6-methoxy-3,4-dihydroisoquinolin-2(1H)-yl)methyl)benzyloxy)phenyl)hex-4-ynoic acid]
- inhibition in vivo at 10 mg/kg (Male Sprague Dawley rats): 24.6%

- EC50 (human GPR40; [10]): > 0.3 µM
SMILES: CC#C[C@@H](CC(=O)O)c1ccc(OCc2ccc(CN3CCN(c4ccc(OCCCS(C)(=O)=O)cc4)CC3)cc2)cc1 [Example 36, (S)-3-(4-(4-((4-(4-(3-(methylsulfonyl)propoxy)phenyl)piperazin-1-yl)methyl)benzyloxy)phenyl)hex-4-ynoic acid]
- inhibition in vivo at 10 mg/kg (Male Sprague Dawley rats): 22.6%

- EC50 (human GPR40; [10]): > 0.3 µM
SMILES: CC#C[C@@H](CC(=O)O)c1ccc(OCc2ccc(CN3CCCc4ccccc43)cc2)cc1 [Example 41, sodium (S)-3-(4-(4-((3,4-dihydroquinolin-1(2H)-yl)methyl)benzyloxy)phenyl)hex-4-ynoate]
- inhibition in vivo at 10 mg/kg (Male Sprague Dawley rats): 23.7%

- EC50 (human GPR40; [10]): > 0.3 µM
SMILES: CC#C[C@@H](CC(=O)O)c1ccc(OCc2ccc(CN3CCN(c4nc5ccccc5s4)CC3)cc2)cc1 [Example 43, (S)-3-(4-(4-((4-(benzo[d]thiazol-2-yl)piperazin-1-yl)methyl)benzyloxy)phenyl)hex-4-ynoic acid]
- inhibition in vivo at 10 mg/kg (Male Sprague Dawley rats): 21.2%

- EC50 (human GPR40; [10]): > 0.3 µM
SMILES: CC#C[C@@H](CC(=O)O)c1ccc(OCc2ccc(CN3CCN(c4ncc(CCC)cn4)CC3)cc2)cc1 [Example 44, (S)-3-(4-(4-((4-(5-propylpyrimidin-2-yl)piperazin-1-yl)methyl)benzyloxy)phenyl)hex-4-ynoic acid]
- inhibition in vivo at 10 mg/kg (Male Sprague Dawley rats): 22.8%

More lines, now with the values behind:

SMILES: OC[C@H]1O[C@@H](c2ccc(Cl)c(Cc3ccc(O[C@H]4CCOC4)cc3)c2)[C@H](O)[C@@H](O)[C@@H]1O [Empagliflozin, empagliflozin]
- Reduction (%) of blood glucose AUC ([1]; empagliflozin 1 mg/kg alone): 6.5%
- Reduction (%) of blood glucose AUC ([1]; empagliflozin 3 mg/kg alone): 9.2%
- Reduction (%) of blood glucose AUC ([1]; empagliflozin 10 mg/kg alone): 29.5%

SMILES: CC#C[C@@H](CC(=O)O)c1ccc(OCc2cccc(C3=CCC4(CC3)OCCO4)c2)cc1 [Example 9, L-lysine (3S)-3-(4-(3-(1,4-dioxaspiro[4.5]dec-7-en-8-yl)benzyloxy)phenyl)hex-4-ynoate]
- Reduction (%) of blood glucose AUC ([2]; Example 9 3 mg/kg alone): 14.5%
- inhibition in vivo at 10 mg/kg (Male Sprague Dawley rats): 24.7%
- Reduction (%) of blood glucose AUC ([3]; oral, Example 9 1 mg/kg alone): 34.2%
- Reduction (%) of blood glucose AUC ([3]; oral, Example 9 3 mg/kg alone): 40.9%
- Reduction (%) of blood glucose AUC ([3]; oral, Example 9 10 mg/kg alone): 37.8%
- Reduction (%) of blood glucose AUC ([1]; Example 9 3 mg/kg alone): 14.8%
- Reduction (%) of blood glucose AUC ([4]; Example 9 10 mg/kg alone): 9.1%
- Reduction (%) of blood glucose AUC ([4]; Example 9 30 mg/kg alone): 11.4%
- Reduction (%) of blood glucose AUC ([4]; Example 9 100 mg/kg alone): 12.7%
- Insulin ([5]; Example 9 0.01 μM alone): 99 ng/mL
- Reduction (%) of blood glucose AUC [6]: 14.8%
- blood GLP-1 concentration compared with the glucose treated group (Veh.) [7]: increased the blood GLP-1 concentration
- Reduction (%) of blood glucose AUC ([8]; Example 9 30 mg/kg alone): 10.1%
- Reduction (%) of blood glucose AUC ([8]; Example 9 100 mg/kg alone): 15.4%
- Reduction (%) of blood glucose AUC ([9]; Example 9 10 mg/kg alone): 24.9%
- Reduction (%) of blood glucose AUC ([9]; Example 9 30 mg/kg alone): 20.2%

SMILES: CC#CC(CC(=O)O)c1ccc(OCc2ccc(CN3CC=C(c4ccccc4)CC3)cc2)cc1 (stereo not drawn) [Example 14, 3-(4-(4-((4-phenyl-5,6-dihydropyridin-1(2H)-yl)methyl)benzyloxy)phenyl)hex-4-ynoic acid]
- inhibition in vivo at 10 mg/kg (Male Sprague Dawley rats): 27.7%
- EC50 (human GPR40; [10]): < 0.2 µM
- EC50 (human GPR40; values in text, read-out: concentration activating the GPR40 protein by 50% (EC50)): ≤ 0.2 µM

SMILES: COc1ccc(Cl)cc1C(=O)NCCc1ccc(S(=O)(=O)NC(=O)NC2CCCCC2)cc1 [Glibenclamide, glibenclamide]
- Insulin ([5]; glibenclamide 0.1 μM alone, vehicle 58): 73 ng/mL
- Insulin ([5]; glibenclamide 1 μM alone): 72 ng/mL

SMILES: CCC1=C(C)CN(C(=O)NCCc2ccc(S(=O)(=O)NC(=O)N[C@H]3CC[C@H](C)CC3)cc2)C1=O [Glimepiride, glimepiride, reference compound]
- Reduction (%) of blood glucose AUC ([4]; glimepiride 10 mg/kg alone): 44.6%

SMILES: CN(C)C(=N)N=C(N)N [Metformin, metformin]
- Reduction (%) of blood glucose AUC ([2]; metformin 10 mg/kg alone): 3.9%
- Reduction (%) of blood glucose AUC ([2]; metformin 50 mg/kg alone): 7.3%
- Reduction (%) of blood glucose AUC ([2]; metformin 100 mg/kg alone): 10.0%
- Reduction (%) of blood glucose AUC ([3]; metformin 50 mg/kg alone): 21.7%

SMILES: CCc1ccc(CCOc2ccc(CC3SC(=O)NC3=O)cc2)nc1 (stereo not drawn) [Pioglitazone, pioglitazone, reference compound]
- Reduction (%) of blood glucose AUC ([9]; pioglitazone 10 mg/kg alone): 27.9%
